Earlier results, collected in patent US11648202B2, “Hydroxychloroquine sulfate formulations and methods for preparation and use thereof” (Research Triangle Institute, priority 2017, dated 2023).
Counter-ions that a name gives are not always drawn.

pKa of the amine: about 9.4
SMILES: CCN(CCO)CCCC(C)Nc1ccnc2cc(Cl)ccc12 (stereo not shown) [HCQS, hydroxychloroquine sulfate]
